Values after ≈ are worked out from the molar mass of the structure shown. Like-named read-outs stand apart in the source and are kept apart here.
Tests used:
Experiment in all cases: microbe, parasite or virus in culture
C.botulinum (ATCC 19397) = assay type: cell-based; settings: Clostridium botulinum
[1] = system: C.perfingens (ATCC 1620-19); assay type: cell-based, Clostridium perfingens; settings: Clostridium, read-out: Minimum Inhibitory Concentrations
B.subtilis = assay type: cell-based; settings: Bacillus subtilis, read-out: Minimum Inhibitory Concentrations
[2] = system: C. paraputrificum (ATCC 1620-23); assay type: cell-based; settings: Clostridium paraputrificum, read-out: Minimum Inhibitory Concentrations
[3] = system: C.perfingens (ATCC 13124); assay type: cell-based, Clostridium perfingens; settings: Clostridium, read-out: Minimum Inhibitory Concentrations
[4] = ATCC19397, pH 5, read-out: Minimum Inhibitory Concentrations
[5] = ATCC19397, pH 7, read-out: Minimum Inhibitory Concentrations

| Compound | MIC (C.botulinum (ATCC 19397); [4]) | MIC (C.botulinum (ATCC 19397); [5]) | MIC ([1]; ATCC1620, pH 5) | MIC ([1]; ATCC1620, pH 7) | MIC (B.subtilis; pH 5) | MIC (B.subtilis; pH 7) | MIC ([2]; ATCC1620, pH 5) | MIC ([2]; ATCC1620, pH 7) | MIC ([3]; ATCC13124, pH 5) | MIC ([3]; ATCC13124, pH 7) |
| --- | --- | --- | --- | --- | --- | --- | --- | --- | --- | --- |
| CCCCCC(=O)OCC(O)C(=O)O (stereo not shown) [R=5, 3-O-hexanoylglyceric acid] | 10 µg/mL (≈ 49 µM) | 100 µg/mL (≈ 490 µM) | 10 µg/mL (≈ 49 µM) | 1000 µg/mL (≈ 4900 µM) | 10 µg/mL (≈ 49 µM) | 10000 µg/mL (≈ 49000 µM) | 10 µg/mL (≈ 49 µM) | 1000 µg/mL (≈ 4900 µM) | 100 µg/mL (≈ 490 µM) | 1000 µg/mL (≈ 4900 µM) |
| CCCCCCCCCC(=O)OCC(O)C(=O)O (stereo not shown) [R=9, 3-O-decanoylglyceric acid] | 10 µg/mL (≈ 38.4 µM) | 10 µg/mL (≈ 38.4 µM) | 10 µg/mL (≈ 38.4 µM) | 100 µg/mL (≈ 384 µM) | 10 µg/mL (≈ 38.4 µM) | 1000 µg/mL (≈ 3840 µM) | 10 µg/mL (≈ 38.4 µM) | 100 µg/mL (≈ 384 µM) | 10 µg/mL (≈ 38.4 µM) | 10 µg/mL (≈ 38.4 µM) |
| CCCCCCCCCCCCC(=O)OCC(O)C(=O)O (stereo not shown) [R=12, 3-O-tridecanoylglyceric acid] | 10 µg/mL (≈ 33.1 µM) | 100 µg/mL (≈ 331 µM) | 10 µg/mL (≈ 33.1 µM) | 10 µg/mL (≈ 33.1 µM) | 10 µg/mL (≈ 33.1 µM) | 1000 µg/mL (≈ 3310 µM) | 10 µg/mL (≈ 33.1 µM) | 100 µg/mL (≈ 331 µM) | 10 µg/mL (≈ 33.1 µM) | 100 µg/mL (≈ 331 µM) |
| CCCCCCCCCCCCCCCC(=O)OCC(O)C(=O)O (stereo not shown) [R=15, 3-O-hexadecanoylglyceric acid] | 100 µg/mL (≈ 290 µM) | 1000 µg/mL (≈ 2900 µM) | 100 µg/mL (≈ 290 µM) | 100 µg/mL (≈ 290 µM) | > 10000 µg/mL | 10000 µg/mL (≈ 29000 µM) | 10 µg/mL (≈ 29 µM) | 1000 µg/mL (≈ 2900 µM) | 10 µg/mL (≈ 29 µM) | 1000 µg/mL (≈ 2900 µM) |
